Laboratory results: PMC12073402, “A Selective MAP3K1 Inhibitor Facilitates Discovery of NPM1 as a Member of the Network” (Molecules, 2025)

Experiments:
Assay in all cases: KiNativ kinome profiling in PANC-1 lysate
Type in all cases: binding
MAP2K6 = biological target: T1, MAP2K6 (Homo sapiens, UniProt P52564); conditions: for % Inhibition: 5 µM
T1 construct: endogenous in cells; host or cells: PANC-1 cell lysate
T1 sequence (P52564 1-334): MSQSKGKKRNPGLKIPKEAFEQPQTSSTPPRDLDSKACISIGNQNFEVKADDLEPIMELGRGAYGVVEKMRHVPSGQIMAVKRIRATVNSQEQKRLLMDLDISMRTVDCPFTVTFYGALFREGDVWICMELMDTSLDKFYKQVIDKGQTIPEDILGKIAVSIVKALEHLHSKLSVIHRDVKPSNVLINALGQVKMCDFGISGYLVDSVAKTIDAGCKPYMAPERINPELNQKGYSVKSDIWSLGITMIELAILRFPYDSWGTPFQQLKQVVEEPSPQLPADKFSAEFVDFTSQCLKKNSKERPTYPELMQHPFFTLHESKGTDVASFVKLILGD
Text: (§1) To assess target engagement and selectivity, we opted to conduct a kinome screen (KiNativ) in PANC-1 cell lysates. This chemical proteomics (chemoproteomics) methodology allows for the evaluation of small-molecule binding to protein kinases in native systems such as cell lysates. KiNativ utilizes a soluble chemical probe comprising ATP linked to biotin through an acyl-phosphate bond. The probe covalently modifies conserved lysine residues found in the ATP binding site of essentially all protein kinases (Figure 2A). To profile a kinase inhibitor, cell lysates are treated with a vehicle control or inhibitor prior to addition of the desthiobiotin ATP probe. The ATP probe occupies the ATP binding site in the kinase, which enables the conserved lysines to be biotinylated. […] The cell lysates are digested with a protease (trypsin), biotinylated peptides are affinity-enriched on streptavidin beads, and the labeled peptides are analyzed by liquid chromatography–tandem MS (Figure 2B). If an inhibitor binds to a kinase, it competes with the ATP, thus resulting in a loss of that kinase-associated peptide signal, allowing for the quantitative measurement of inhibitor binding. Unlike recombinant enzyme assays, KiNativ IC50 values are a direct measure of active site binding instead of enzymatic activity.
(§2) Kinome profiling quantified the activity of 51-106 against >300 kinases in the PANC-1 cells. The results summarized in Figure 2C are the average of duplicate control and duplicate treated samples with 5 μM of 51-106 or DMSO.
(§3) KiNativ assay with 51-106.
(§4) ATP Loop: ATP binding loop
(§5) Activation Loop: Activation loop
(§6) ATP: ATP site in non-canonical kinase (e.g. lipid kinase)
(§7) Protein Kinase Domain: Other lysine within kinase domain, possibly not in ATP binding site
(§8) Other: Labeling of residue outside of the protein kinase domain, possibly not in ATP binding site
(§9) No change. NB = No Binding (≤ 0)
(§10) >100% increase in MS signal (>2 fold increase)
(§11) Data points inhibited […] & not considered significant are left uncolored
(§12) Note: This KiNativ dataset is the result of an analysis of duplicate treated samples and control samples.
(§13) The % changes in MS signals being reported are statistically significant (Student T -test score < 0.04)

SLK = biological target: T2, SLK (Homo sapiens, UniProt Q9H2G2)
T2 construct: endogenous in cells; host or cells: PANC-1 cell lysate
T2 sequence (Q9H2G2 whole entry): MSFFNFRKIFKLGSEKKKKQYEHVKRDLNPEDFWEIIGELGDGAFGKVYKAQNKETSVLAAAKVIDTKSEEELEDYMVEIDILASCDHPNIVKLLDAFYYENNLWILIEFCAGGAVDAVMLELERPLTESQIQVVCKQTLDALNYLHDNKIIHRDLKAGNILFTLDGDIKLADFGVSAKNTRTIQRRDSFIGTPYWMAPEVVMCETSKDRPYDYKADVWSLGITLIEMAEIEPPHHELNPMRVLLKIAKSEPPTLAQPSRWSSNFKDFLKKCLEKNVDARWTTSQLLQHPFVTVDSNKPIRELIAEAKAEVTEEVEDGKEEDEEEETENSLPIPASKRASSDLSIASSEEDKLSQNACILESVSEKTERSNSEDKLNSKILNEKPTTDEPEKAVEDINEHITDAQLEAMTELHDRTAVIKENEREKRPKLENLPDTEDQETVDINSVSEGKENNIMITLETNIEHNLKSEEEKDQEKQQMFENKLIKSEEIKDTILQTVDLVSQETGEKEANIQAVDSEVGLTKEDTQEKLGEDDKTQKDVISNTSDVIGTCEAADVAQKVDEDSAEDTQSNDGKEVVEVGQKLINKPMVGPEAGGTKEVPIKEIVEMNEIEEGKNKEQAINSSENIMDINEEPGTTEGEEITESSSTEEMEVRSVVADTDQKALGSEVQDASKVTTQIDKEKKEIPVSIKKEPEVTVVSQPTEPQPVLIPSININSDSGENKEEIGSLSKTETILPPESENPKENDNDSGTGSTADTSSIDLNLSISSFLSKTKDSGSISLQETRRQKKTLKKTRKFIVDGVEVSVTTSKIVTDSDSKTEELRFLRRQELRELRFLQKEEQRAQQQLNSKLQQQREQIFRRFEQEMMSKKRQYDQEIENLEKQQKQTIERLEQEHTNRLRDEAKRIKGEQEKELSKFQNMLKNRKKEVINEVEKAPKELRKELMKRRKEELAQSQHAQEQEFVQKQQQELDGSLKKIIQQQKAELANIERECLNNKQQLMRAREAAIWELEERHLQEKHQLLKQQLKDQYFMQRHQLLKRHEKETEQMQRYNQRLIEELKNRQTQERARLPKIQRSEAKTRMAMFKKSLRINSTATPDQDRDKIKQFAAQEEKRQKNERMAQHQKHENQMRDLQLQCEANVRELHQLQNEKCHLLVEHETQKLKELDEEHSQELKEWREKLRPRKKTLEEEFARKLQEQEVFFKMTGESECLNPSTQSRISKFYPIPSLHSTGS
Text: as §1, §2, §3, §4, §5, §6, §7, §8, §9, §10, §11, §12, §13

PKCi = biological target: T3, PKCi (Homo sapiens, UniProt P41743)
T3 construct: endogenous in cells; host or cells: PANC-1 cell lysate
T3 sequence (P41743 whole entry): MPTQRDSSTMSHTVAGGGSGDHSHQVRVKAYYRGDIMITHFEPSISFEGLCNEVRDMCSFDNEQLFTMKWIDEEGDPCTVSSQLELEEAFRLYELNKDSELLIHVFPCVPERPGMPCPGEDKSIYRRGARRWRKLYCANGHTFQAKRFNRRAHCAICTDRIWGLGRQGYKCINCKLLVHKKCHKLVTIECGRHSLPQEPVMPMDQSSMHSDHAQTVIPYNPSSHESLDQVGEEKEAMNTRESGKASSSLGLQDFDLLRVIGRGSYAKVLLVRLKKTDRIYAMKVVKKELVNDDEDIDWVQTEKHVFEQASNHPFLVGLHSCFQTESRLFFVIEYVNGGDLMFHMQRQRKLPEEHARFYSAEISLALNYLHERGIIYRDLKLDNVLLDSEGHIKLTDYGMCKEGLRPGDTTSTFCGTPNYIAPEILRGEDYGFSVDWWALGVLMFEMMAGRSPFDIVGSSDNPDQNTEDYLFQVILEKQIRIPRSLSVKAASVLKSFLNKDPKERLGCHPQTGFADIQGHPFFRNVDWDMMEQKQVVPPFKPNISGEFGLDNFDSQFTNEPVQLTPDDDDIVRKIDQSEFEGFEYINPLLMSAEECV
Text: as §1, §2, §3, §4, §5, §6, §7, §8, §9, §10, §11, §12, §13

CK1g2 = biological target: T4, CK1g2 (Homo sapiens, UniProt P78368); conditions: Lys2
T4 construct: endogenous in cells; host or cells: PANC-1 cell lysate
Text: as §1, §2, §3, §4, §5, §6, §7, §8, §9, §10, §11, §12, §13

PIK3C3 = biological target: T5, PIK3C3 (Homo sapiens, UniProt Q8NEB9); conditions: ATP
T5 construct: endogenous in cells; host or cells: PANC-1 cell lysate
T5 sequence (Q8NEB9 whole entry): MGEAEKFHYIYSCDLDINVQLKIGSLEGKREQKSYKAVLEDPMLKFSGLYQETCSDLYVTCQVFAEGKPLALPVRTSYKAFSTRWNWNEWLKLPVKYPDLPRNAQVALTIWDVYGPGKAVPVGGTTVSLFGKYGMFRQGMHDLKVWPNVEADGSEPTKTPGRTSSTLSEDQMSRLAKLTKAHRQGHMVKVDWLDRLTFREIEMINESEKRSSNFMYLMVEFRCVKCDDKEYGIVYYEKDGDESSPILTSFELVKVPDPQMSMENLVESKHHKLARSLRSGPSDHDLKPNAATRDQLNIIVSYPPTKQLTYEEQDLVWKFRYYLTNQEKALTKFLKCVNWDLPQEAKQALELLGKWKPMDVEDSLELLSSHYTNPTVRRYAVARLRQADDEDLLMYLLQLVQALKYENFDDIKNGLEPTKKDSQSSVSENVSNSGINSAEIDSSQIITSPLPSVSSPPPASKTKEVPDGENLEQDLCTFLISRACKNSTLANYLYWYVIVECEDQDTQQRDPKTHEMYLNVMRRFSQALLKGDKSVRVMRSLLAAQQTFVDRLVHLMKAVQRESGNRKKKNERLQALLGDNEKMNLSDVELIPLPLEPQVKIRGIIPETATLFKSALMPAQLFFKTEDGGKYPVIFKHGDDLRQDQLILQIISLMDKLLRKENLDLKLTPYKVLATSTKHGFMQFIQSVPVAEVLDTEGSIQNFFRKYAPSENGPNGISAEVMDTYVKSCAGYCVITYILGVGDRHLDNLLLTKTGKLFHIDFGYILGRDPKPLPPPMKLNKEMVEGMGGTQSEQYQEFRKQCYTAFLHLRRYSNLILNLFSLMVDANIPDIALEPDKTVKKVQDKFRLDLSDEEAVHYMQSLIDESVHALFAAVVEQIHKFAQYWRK
Text: as §1, §2, §3, §4, §5, §6, §7, §8, §9, §10, §11, §12, §13

TBK1 = biological target: T6, TBK1 (Homo sapiens, UniProt Q9UHD2); conditions: Lys1
T6 construct: endogenous in cells; host or cells: PANC-1 cell lysate
Text: as §1, §2, §3, §4, §5, §6, §7, §8, §9, §10, §11, §12, §13

PKD2 = biological target: T7, PKD2 (Homo sapiens, UniProt Q9BZL6); conditions: Lys1
T7 construct: endogenous in cells; host or cells: PANC-1 cell lysate
Text: as §1, §2, §3, §4, §5, §6, §7, §8, §9, §10, §11, §12, §13

AAK1 = biological target: T8, AAK1 (Homo sapiens, UniProt Q2M2I8); conditions: Lys2
T8 construct: endogenous in cells; host or cells: PANC-1 cell lysate
T8 sequence (Q2M2I8 whole entry): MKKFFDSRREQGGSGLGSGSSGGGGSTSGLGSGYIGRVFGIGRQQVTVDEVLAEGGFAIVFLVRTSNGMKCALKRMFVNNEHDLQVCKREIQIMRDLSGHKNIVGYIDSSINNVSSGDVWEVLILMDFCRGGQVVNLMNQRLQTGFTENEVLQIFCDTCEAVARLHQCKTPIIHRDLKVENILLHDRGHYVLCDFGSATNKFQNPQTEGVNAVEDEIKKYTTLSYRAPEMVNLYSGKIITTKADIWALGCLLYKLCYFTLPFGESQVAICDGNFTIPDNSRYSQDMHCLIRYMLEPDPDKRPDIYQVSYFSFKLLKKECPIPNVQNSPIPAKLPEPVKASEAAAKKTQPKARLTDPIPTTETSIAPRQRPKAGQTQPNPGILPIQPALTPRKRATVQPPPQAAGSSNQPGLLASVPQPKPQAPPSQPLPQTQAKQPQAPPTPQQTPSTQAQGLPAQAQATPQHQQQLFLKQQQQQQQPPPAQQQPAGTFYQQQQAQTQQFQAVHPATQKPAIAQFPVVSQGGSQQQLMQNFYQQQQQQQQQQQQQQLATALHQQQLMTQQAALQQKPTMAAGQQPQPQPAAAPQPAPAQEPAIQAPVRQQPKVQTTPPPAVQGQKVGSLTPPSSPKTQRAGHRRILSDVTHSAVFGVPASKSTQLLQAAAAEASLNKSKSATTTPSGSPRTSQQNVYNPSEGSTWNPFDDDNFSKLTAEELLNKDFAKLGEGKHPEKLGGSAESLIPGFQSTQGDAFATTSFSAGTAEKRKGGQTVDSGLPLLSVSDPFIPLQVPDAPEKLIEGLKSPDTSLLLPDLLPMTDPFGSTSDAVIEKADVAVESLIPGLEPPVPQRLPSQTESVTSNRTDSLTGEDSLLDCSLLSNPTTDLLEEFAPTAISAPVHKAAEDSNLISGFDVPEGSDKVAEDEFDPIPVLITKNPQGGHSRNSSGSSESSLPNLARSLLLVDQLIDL
Text: as §1, §2, §3, §4, §5, §6, §7, §8, §9, §10, §11, §12, §13

NEK7 = biological target: T9, NEK7 (Homo sapiens, UniProt Q8TDX7); conditions: Lys1
T9 construct: endogenous in cells; host or cells: PANC-1 cell lysate
Text: as §1, §2, §3, §4, §5, §6, §7, §8, §9, §10, §11, §12, §13

TYK2 domain2 = biological target: T10, TYK2 domain2 (Homo sapiens, UniProt P29597); conditions: ATP Loop
T10 construct: endogenous in cells; host or cells: PANC-1 cell lysate
Text: as §1, §2, §3, §4, §5, §6, §7, §8, §9, §10, §11, §12, §13

eEF2K = biological target: T11, eEF2K (Homo sapiens, UniProt O00418); conditions: ATP
T11 construct: endogenous in cells; host or cells: PANC-1 lysate
Text: as §1, §2, §3, §4, §5, §6, §7, §8, §9, §10, §11, §12, §13

p38b = biological target: T12, p38b (Homo sapiens, UniProt Q15759); conditions: Other
T12 construct: endogenous in cells; host or cells: PANC-1 cell lysate
Text: as §1, §2, §3, §4, §5, §6, §7, §8, §9, §10, §11, §12, §13

CK1a = biological target: T13, CK1a (Homo sapiens, UniProt P48729); conditions: Lys2
T13 construct: endogenous in cells; host or cells: PANC-1 cell lysate
Text: as §1, §2, §3, §4, §5, §6, §7, §8, §9, §10, §11, §12, §13

HRI = biological target: T14, HRI (Homo sapiens, UniProt Q9BQI3); conditions: ATP Loop
T14 construct: we opted to conduct a kinome screen (KiNativ) in PANC-1 cell lysates; endogenous in cells; host or cells: PANC-1 cell lysate
Text: as §1, §2, §3, §4, §5, §6, §7, §8, §9, §10, §11, §12, §13

CaMK2g = biological target: T15, CaMK2g (Homo sapiens, UniProt Q13555); conditions: Lys1
T15 construct: endogenous in cells; host or cells: PANC-1 cell lysate
Text: as §1, §2, §3, §4, §5, §6, §7, §8, §9, §10, §11, §12, §13

PHKg2 = biological target: T16, PHKg2 (Homo sapiens, UniProt P15735); conditions: Lys1
T16 construct: endogenous in cells; host or cells: PANC-1 cell lysate
Text: as §1, §2, §3, §4, §5, §6, §7, §8, §9, §10, §11, §12, §13

MAP3K15, MAP3K5, MAP3K6 = conditions: 5 µM; Lys1; IAIKEIPER
Text: as §1, §2, §3, §4, §5, §6, §7, §8, §9, §10, §11, §12, §13

EphA2 = biological target: T17, EphA2 (Homo sapiens, UniProt P29317); conditions: ATP Loop
T17 construct: endogenous in cells; host or cells: PANC-1 lysate
Text: as §1, §2, §3, §4, §5, §6, §7, §8, §9, §10, §11, §12, §13

MSK2 domain1 = biological target: T18, MSK2 domain1 (Homo sapiens, UniProt O75676)
T18 construct: endogenous in cells; host or cells: PANC-1
T18 sequence (O75676 whole entry, the tested form may be a part): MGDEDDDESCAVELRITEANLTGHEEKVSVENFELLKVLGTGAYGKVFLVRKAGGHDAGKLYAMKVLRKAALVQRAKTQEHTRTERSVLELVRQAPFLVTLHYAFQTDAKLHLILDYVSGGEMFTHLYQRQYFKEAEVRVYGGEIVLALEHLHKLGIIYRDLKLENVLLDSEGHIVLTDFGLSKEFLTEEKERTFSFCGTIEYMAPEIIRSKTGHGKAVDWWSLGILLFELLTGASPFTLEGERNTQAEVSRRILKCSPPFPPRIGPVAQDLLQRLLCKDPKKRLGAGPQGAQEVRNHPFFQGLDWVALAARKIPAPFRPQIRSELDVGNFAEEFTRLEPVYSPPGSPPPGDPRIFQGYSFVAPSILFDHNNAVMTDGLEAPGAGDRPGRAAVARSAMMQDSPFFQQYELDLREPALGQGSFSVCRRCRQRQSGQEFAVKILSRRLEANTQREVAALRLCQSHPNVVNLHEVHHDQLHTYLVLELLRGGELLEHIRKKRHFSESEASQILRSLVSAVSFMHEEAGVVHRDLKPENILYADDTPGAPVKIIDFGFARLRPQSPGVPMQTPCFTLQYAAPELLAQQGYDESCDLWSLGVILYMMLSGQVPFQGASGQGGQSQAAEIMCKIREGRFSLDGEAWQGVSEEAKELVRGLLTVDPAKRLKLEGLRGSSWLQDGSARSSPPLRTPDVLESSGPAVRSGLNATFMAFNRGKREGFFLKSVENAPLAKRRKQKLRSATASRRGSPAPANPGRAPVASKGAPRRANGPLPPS
Text: as §1, §2, §3, §4, §5, §6, §7, §8, §9, §10, §11, §12, §13

PRP4 = biological target: T19, PRP4 (Homo sapiens, UniProt Q13523); conditions: Lys2
T19 construct: endogenous in cells; host or cells: PANC-1 cell lysate
Text: as §1, §2, §3, §4, §5, §6, §7, §8, §9, §10, §11, §12, §13

CLK3 = biological target: T20, CLK3 (Homo sapiens, UniProt P49761)
T20 construct: endogenous in cells; host or cells: PANC-1 cell lysate
T20 sequence (P49761 whole entry): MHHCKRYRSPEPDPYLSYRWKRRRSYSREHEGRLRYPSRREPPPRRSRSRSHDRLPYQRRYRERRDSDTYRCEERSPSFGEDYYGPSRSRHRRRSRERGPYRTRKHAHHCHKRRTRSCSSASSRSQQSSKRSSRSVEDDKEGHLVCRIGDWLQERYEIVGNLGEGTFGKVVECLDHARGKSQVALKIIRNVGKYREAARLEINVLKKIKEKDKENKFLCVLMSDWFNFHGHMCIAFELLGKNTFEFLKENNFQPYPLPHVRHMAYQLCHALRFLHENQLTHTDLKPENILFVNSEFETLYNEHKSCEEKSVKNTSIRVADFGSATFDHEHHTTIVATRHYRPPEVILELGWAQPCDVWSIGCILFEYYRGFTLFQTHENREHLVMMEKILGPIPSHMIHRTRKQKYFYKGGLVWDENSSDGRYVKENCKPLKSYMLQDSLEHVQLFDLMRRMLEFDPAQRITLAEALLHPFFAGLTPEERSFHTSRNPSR
Text: as §1, §2, §3, §4, §5, §6, §7, §8, §9, §10, §11, §12, §13

TNK1 = biological target: T21, TNK1 (Homo sapiens, UniProt Q13470); conditions: Lys1
T21 construct: endogenous in cells; host or cells: PANC-1 cell lysate
Text: as §1, §2, §3, §4, §5, §6, §7, §8, §9, §10, §11, §12, §13

Cn1cc(-c2cnc3ccc(NC(=O)Nc4ccc(F)c(C(F)(F)F)c4)cc3n2)cn1 [51-106, 1-(4-Fluoro-3-(trifluoromethyl)phenyl)-3-(3-(1-methyl-1H-pyrazol-4-yl)quinoxalin-6-yl)urea]
% Inhibition (MAP2K6; Lys1, HVPSGQIMAVKR): NB (NB = No Binding (≤ 0)) | % Inhibition (MAP2K6; Lys2, DVKPSNVLINALGQVK): NB (NB = No Binding (≤ 0)) | inhibition at 5 µM (MAP2K6; ATP Loop, […]): ≤ 0% | inhibition at 5 µM (SLK; Lys1, AQNKETSVLAAAKVIDTK): ≤ 0% | inhibition at 5 µM (SLK; Lys2, DLKAGNILFTLDGDIK): 7% | % Inhibition (PKCi; 5 µM, Lys2, DLKLDNVLLDSEGHIK): NB (NB = No Binding (≤ 0)) | inhibition at 5 µM (PKCi; Lys1, […]): ≤ 0% | inhibition at 5 µM (CK1g2): ≤ 0% | inhibition at 5 µM (PIK3C3; TEDGGKYPVIFKHGDDLR): 4.9% | inhibition at 5 µM (PIK3C3; TEDGGKYPVIFKHGDDLRQDQLILQIISLMDK): ≤ 0% | inhibition at 5 µM (TBK1): 5.7% | inhibition at 5 µM (PKD2): 10.6% | inhibition at 5 µM (AAK1): 3.5% | inhibition at 5 µM (NEK7): 10.3% | inhibition at 5 µM (TYK2 domain2): ≤ 0% | inhibition at 5 µM (eEF2K): 6.3% | inhibition at 5 µM (p38b): ≤ 0% | inhibition at 5 µM (CK1a): 11.1% | inhibition at 5 µM (HRI): ≤ 0% | inhibition at 5 µM (CaMK2g): 7.1% | inhibition at 5 µM (PHKg2): ≤ 0% | % Inhibition (MAP3K15, MAP3K5, MAP3K6): NB (NB = No Binding (≤ 0)) | inhibition at 5 µM (EphA2): ≤ 0% | inhibition at 5 µM (MSK2 domain1; Lys1, LYAMKVLR): 5.5% | inhibition at 5 µM (MSK2 domain1; Lys2, DLKLENVLLDSEGHIVLTDFGLSK): ≤ 0% | inhibition at 5 µM (PRP4): ≤ 0% | inhibition at 5 µM (CLK3; ATP Loop, YEIVGNLGEGTFGKVVECLDHAR): ≤ 0% | inhibition at 5 µM (CLK3; Lys2, FLHENQLTHTDLKPENILFVNSEFETLYNEHK): 4.4% | inhibition at 5 µM (TNK1): 1.9%
